System: THP-1 cells
Assay: cDNA microarray analysis of LPS-induced gene transcription in THP-1 cells
Format: cell-based, Human
Procedure: THP-1 cells were cultured in RPMI1640 medium, supplemented with 10% FBS/100 units/ml Penicillin/10 μg/ml Streptomycin at 37° C., under 5% CO2. […] For the untreated control group (no LPS, no compound) and LPS alone group, equivalent volumes of DMSO were added to the medium. Cells were cultured at 37° C. and pellets were collected at 0 hr, 1 hr, 3 hr, 6 hr, 12 hr & 24 hr. Cell pellets were stored at −80° C. if RNA isolation was not conducted immediately. For experiments to study cytokine secretion in culture supernatants, THP-1 cells were washed twice with PBS, resuspended at 3.4×10^5/ml and cultured in 96-well plates at 250 μL, per well at 37° C. […] Supernatants were collected at different time points as indicated in the figures and were kept at ≦−20° C. until analysis of cytokine production.
Total RNA was isolated using RNeasy mini kit from QIAGEN (Valencia, Calif.) according to the manufacturer's instructions. RNA samples were stored at −80° C.
Five μg of total RNA was linearly amplified to double-stranded cDNA using T7-based amplification. The cDNA was purified using the QIAquick 96 PCR purification kit (QIAGEN Valencia, Calif.), and used to generate amplified (a) RNA using AmpliScribe™ T7 High Yield Transcription Kit (Epicentre, Madison, Wis.). Ten μg of purified aRNA was reverse transcribed to cDNA using the SuperScript RTII kit (Invitrogen) and labeled by direct incorporation of Cy3-dCTP. The generated cDNA probe was used for hybridizing to cDNA microarrays.
Each clone was spotted in duplicate on the array.

[1] = LPS 100 ng/ml, tipifarnib 5 μM, 3 hr
[2] = LPS 100 ng/ml, tipifarnib 5 μM, 6 hr
[3] = LPS 100 ng/ml, tipifarnib 5 μM, 12 hr
[4] = LPS 100 ng/ml, tipifarnib 5 μM, 24 hr

Cn1cncc1C(N)(c1ccc(Cl)cc1)c1ccc2c(c1)c(-c1cccc(Cl)c1)cc(=O)n2C (single isomer, unassigned; (+)) [tipifarnib, (+)-6-[amino(4-chlorophenyl)(1-methyl-1H-imidazol-5-yl)methyl]-4-(3-chlorophenyl)-1-methyl-2(1H)-quinolinone]
Fold-change (tipifarnib/LPS vs LPS) STAT1 [1]: −1.32
Fold-change (tipifarnib/LPS vs LPS) TAP1 [1]: 1.15
Fold-change (tipifarnib/LPS vs LPS) TAP2 [1]: −1.15
Fold-change (tipifarnib/LPS vs LPS) TIMP3 [1]: −1.41
Fold-change (tipifarnib/LPS vs LPS) TRIM22 [1]: 1.00
Fold-change (tipifarnib/LPS vs LPS) UBE2L6 [1]: −1.07
Fold-change (tipifarnib/LPS vs LPS) B2M [2]: −1.23
Fold-change (tipifarnib/LPS vs LPS) C3AR1 [2]: −1.23
Fold-change (tipifarnib/LPS vs LPS) CCL3 [2]: −1.07
Fold-change (tipifarnib/LPS vs LPS) CCL4 [2]: 1.07
Fold-change (tipifarnib/LPS vs LPS) CCND1 [2]: −1.15
Fold-change (tipifarnib/LPS vs LPS) IER3 [2]: 1.15
Fold-change (tipifarnib/LPS vs LPS) IFI16 [2]: −1.32
Fold-change (tipifarnib/LPS vs LPS) IFIT1 [2]: −1.41
Fold-change (tipifarnib/LPS vs LPS) IGFBP3 [2]: 1.00
Fold-change (tipifarnib/LPS vs LPS) IL8 [2]: −1.15
Fold-change (tipifarnib/LPS vs LPS) KCNK17 [2]: −1.32
Fold-change (tipifarnib/LPS vs LPS) LGR7 [2]: −1.41
Fold-change (tipifarnib/LPS vs LPS) MMP9 [2]: −1.41
Fold-change (tipifarnib/LPS vs LPS) NEXN [2]: −1.41
Fold-change (tipifarnib/LPS vs LPS) NFKB2 [2]: −1.07
Fold-change (tipifarnib/LPS vs LPS) PTX3 [2]: −1.32
Fold-change (tipifarnib/LPS vs LPS) S100A9 [2]: −1.07
Fold-change (tipifarnib/LPS vs LPS) TIMP3 [2]: −1.23
Fold-change (tipifarnib/LPS vs LPS) UBE2L6 [2]: −1.41
Fold-change (tipifarnib/LPS vs LPS) ABCB8 [3]: −1.23
Fold-change (tipifarnib/LPS vs LPS) CCL3 [3]: 1.23
Fold-change (tipifarnib/LPS vs LPS) GNPNAT1 [3]: −1.41
Fold-change (tipifarnib/LPS vs LPS) IER3 [3]: 1.00
Fold-change (tipifarnib/LPS vs LPS) IFI16 [3]: −1.23
Fold-change (tipifarnib/LPS vs LPS) IFIT1 [3]: −1.32
Fold-change (tipifarnib/LPS vs LPS) IL1RN [3]: −1.15
Fold-change (tipifarnib/LPS vs LPS) IL8 [3]: 1.32
Fold-change (tipifarnib/LPS vs LPS) KCNK17 [3]: 1.00
Fold-change (tipifarnib/LPS vs LPS) LAP3 [3]: −1.23
Fold-change (tipifarnib/LPS vs LPS) LY6E [3]: 1.15
Fold-change (tipifarnib/LPS vs LPS) MX1 [3]: 1.32
Fold-change (tipifarnib/LPS vs LPS) MYD88 [3]: −1.23
Fold-change (tipifarnib/LPS vs LPS) NEXN [3]: −1.15
Fold-change (tipifarnib/LPS vs LPS) NFKB2 [3]: −1.32
Fold-change (tipifarnib/LPS vs LPS) PTX3 [3]: −1.32
Fold-change (tipifarnib/LPS vs LPS) STAT1 [3]: 1.00
Fold-change (tipifarnib/LPS vs LPS) TAP1 [3]: −1.15
Fold-change (tipifarnib/LPS vs LPS) TAP2 [3]: −1.32
Fold-change (tipifarnib/LPS vs LPS) TIMP3 [3]: −1.15
Fold-change (tipifarnib/LPS vs LPS) TRIM22 [3]: −1.07
Fold-change (tipifarnib/LPS vs LPS) UBE2L6 [3]: −1.15
Fold-change (tipifarnib/LPS vs LPS) ABCB8 [4]: −1.23
Fold-change (tipifarnib/LPS vs LPS) B2M [4]: 1.15
Fold-change (tipifarnib/LPS vs LPS) CCND1 [4]: −1.23
Fold-change (tipifarnib/LPS vs LPS) IER3 [4]: 1.23
Fold-change (tipifarnib/LPS vs LPS) IL1B [4]: −1.23
Fold-change (tipifarnib/LPS vs LPS) IL8 [4]: −1.07
Fold-change (tipifarnib/LPS vs LPS) LY6E [4]: −1.32
Fold-change (tipifarnib/LPS vs LPS) MMP9 [4]: −1.41
Fold-change (tipifarnib/LPS vs LPS) MX1 [4]: −1.32
Fold-change (tipifarnib/LPS vs LPS) MYD88 [4]: −1.32
Fold-change (tipifarnib/LPS vs LPS) TAP1 [4]: −1.23
Fold-change (tipifarnib/LPS vs LPS) TAP2 [4]: −1.23
Fold-change (tipifarnib/LPS vs LPS) TIMP3 [4]: 1.15
Fold-change (tipifarnib/LPS vs LPS) UBE2L6 [4]: −1.41
number of LPS-induced transcripts downregulated (out of 121 genes with at least […] induction by LPS at 2 time points, at least […] decrease at one or more time points): 34
